Source: PubChem BioAssay AID330 (DTP/NCI, 2004)
Where “and” joins values, the source holds several entries; their conditions need not be identical. Identical values can stand only once. Toxic doses and inconclusive results are not listed. How the source made its calls: active means survival T/C of 150% or more; inactive means T/C below 125% in these data.

Test system: P388 leukemia ip, CD2F1 mice, survival T/C
Test: NCI In Vivo Anticancer Drug Screen. Data for tumor model P388 Leukemia (intraperitoneal) in CD2F1 (CDF1) mice
Conditions: endpoint: median survival time, higher = longer survival
Summary of the method: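 Mice carrying the transplanted tumor received test compound or vehicle. Survival was recorded in each group, and the value is the treated-group measurement divided by that of the vehicle-treated control group.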

[1] = dose: 6.25 mg/kg/injection, schedule: Q01DX009 (ip), vehicle: saline
[2] = dose: 12.5 mg/kg/injection, schedule: Q01DX009 (ip), vehicle: saline
[3] = dose: 25.0 mg/kg/injection, schedule: Q01DX009 (ip), vehicle: saline
[4] = dose: 100.0 mg/kg/injection, schedule: Q04DX003 (ip), vehicle: saline with Tween-80
[5] = dose: 200.0 mg/kg/injection, schedule: Q04DX003 (ip), vehicle: saline with Tween-80
[6] = dose: 50.0 mg/kg/injection, schedule: Q01DX009 (ip), vehicle: saline
[7] = dose: 60.0 mg/kg/injection, schedule: Q01DX005 (ip), vehicle: Klucel (hydroxypropylcellulose) (HPC)
[8] = dose: 120.0 mg/kg/injection, schedule: Q01DX005 (ip), vehicle: Klucel (hydroxypropylcellulose) (HPC)
[9] = dose: 50.0 mg/kg/injection, schedule: Q01DX009 (ip), vehicle: saline with Tween-80
[10] = dose: 100.0 mg/kg/injection, schedule: Q01DX009 (ip), vehicle: saline with Tween-80
[11] = dose: 50.0 mg/kg/injection, schedule: Q01DX005 (ip), vehicle: Klucel (hydroxypropylcellulose) (HPC)
[12] = dose: 100.0 mg/kg/injection, schedule: Q01DX005 (ip), vehicle: Klucel (hydroxypropylcellulose) (HPC)
[13] = dose: 200.0 mg/kg/injection, schedule: Q01DX005 (ip), vehicle: Klucel (hydroxypropylcellulose) (HPC)
[14] = dose: 400.0 mg/kg/injection, schedule: Q04DX003 (ip), vehicle: saline with Tween-80

Measured: T/C

C=CCN(CC=C)C(N)=Nc1ccc(Cl)cc1
inactive: [1] 100 % of control | [2] 94 % of control | [3] 97 % of control

O=C(Cc1ccccc1)NC1C(=O)N2c3c(CO)cccc3OCC12 (stereo unspecified)
inactive: dose: 50.0 mg/kg/injection, schedule: Q01DX001 (ip), vehicle: saline with Tween-80 100 % of control | dose: 100.0 mg/kg/injection, schedule: Q01DX001 (ip), vehicle: saline with Tween-80 90 % of control | dose: 200.0 mg/kg/injection, schedule: Q01DX001 (ip), vehicle: saline with Tween-80 94 % of control

N#Cc1ccc(OC(=O)Nc2c(Cl)cc(Cl)cc2Cl)cc1
inactive: dose: 60.0 mg/kg/injection, schedule: Q01DX005 (ip), vehicle: saline with Tween-80 100 % of control | dose: 120.0 mg/kg/injection, schedule: Q01DX005 (ip), vehicle: saline with Tween-80 92 % of control

C#CCOC(=O)c1ccc(C(=O)OCC#C)cc1
inactive: [4] 100 % of control | [5] 90 % of control

O=C1C=CC(=O)c2c(O)cccc21
inactive: dose: 0.39 mg/kg/injection, schedule: Q01DX009 (ip), vehicle: saline with Tween-80 93 % of control | dose: 0.75 mg/kg/injection, schedule: Q01DX009 (ip), vehicle: saline with Tween-80 95 % of control | dose: 0.78 mg/kg/injection, schedule: Q01DX009 (ip), vehicle: saline with Tween-80 93 % of control | dose: 1.5 mg/kg/injection, schedule: Q01DX009 (ip), vehicle: saline with Tween-80 90 % of control | dose: 1.56 mg/kg/injection, schedule: Q01DX009 (ip), vehicle: saline with Tween-80 102 % of control | dose: 3.13 mg/kg/injection, schedule: Q01DX009 (ip), vehicle: saline with Tween-80 90 % of control

c1cc2c(cc1C1SCSCS1)OCO2
inactive: dose: 100.0 mg/kg/injection, schedule: Q01DX009 (ip), vehicle: Klucel (hydroxypropylcellulose) (HPC) 100 % of control | dose: 200.0 mg/kg/injection, schedule: Q01DX009 (ip), vehicle: Klucel (hydroxypropylcellulose) (HPC) 120 % of control | dose: 400.0 mg/kg/injection, schedule: Q01DX009 (ip), vehicle: Klucel (hydroxypropylcellulose) (HPC) 110 % of control

COc1ccc2c(c1)s/c(=N/N)n2CCCS(=O)(=O)O
inactive: [6] 109 % of control | dose: 100.0 mg/kg/injection, schedule: Q01DX009 (ip), vehicle: saline 103 % of control | dose: 200.0 mg/kg/injection, schedule: Q01DX009 (ip), vehicle: saline 110 % of control

CCOc1c(N=Nc2ccc(Cl)cc2)c(C)nn1C(=S)S
inactive: [7] 96 % of control | [8] 97 % of control

O=c1[nH]cnc2[nH]cc([N+](=O)[O-])c12
inactive: [1] 102 % of control | [2] 107 % of control | [3] 102 % of control | [6] 103 % of control

NC1=NS(=O)(=O)Nc2nc[nH]c21
inactive: [9] 101 % of control | [10] 100 % of control

C=C(C)C(=O)NC(N)=NC#N
inactive: [7] 122 % of control

O=C(/C=C/c1ccc2c(c1)OCO2)C1CC1
inactive: [9] 92 % of control | [10] 92 % of control | dose: 200.0 mg/kg/injection, schedule: Q01DX009 (ip), vehicle: saline with Tween-80 96 % of control

CCOc1cc(C)c(CC2NC(=O)NC2=O)cc1C(C)C (stereo unspecified)
inactive: dose: 100.0 mg/kg/injection, schedule: Q04DX003 (ip), vehicle: suspension in saline 100 % of control | dose: 200.0 mg/kg/injection, schedule: Q04DX003 (ip), vehicle: suspension in saline 100 % of control | dose: 400.0 mg/kg/injection, schedule: Q04DX003 (ip), vehicle: suspension in saline 88 % of control

CC1(C)CC(N2CCOCC2)=CC(=S)N1
inactive: [11] 100 % of control | [12] 103 % of control | [13] 98 % of control

Nc1ccc(-c2cc3ccc(C4=NCCN4)cc3[nH]2)cc1
inactive: [7] 117 % of control

CC(=O)SCC1C(=O)CCCC1=O
inactive: dose: 12.5 mg/kg/injection, schedule: Q04DX003 (ip), vehicle: saline with Tween-80 104 % of control | dose: 25.0 mg/kg/injection, schedule: Q04DX003 (ip), vehicle: saline with Tween-80 101 % of control and 109 % of control | dose: 50.0 mg/kg/injection, schedule: Q04DX003 (ip), vehicle: saline with Tween-80 100 % of control and 124 % of control

O=C(O)c1cccc(/C=C/c2ccccc2)c1
inactive: dose: 50.0 mg/kg/injection, schedule: Q01DX005 (ip), vehicle: saline with Tween-80 107 % of control | dose: 100.0 mg/kg/injection, schedule: Q01DX005 (ip), vehicle: saline with Tween-80 105 % of control | dose: 200.0 mg/kg/injection, schedule: Q01DX005 (ip), vehicle: saline with Tween-80 114 % of control

CCCCC(CC)C[N+]1(C)CCOCC1 (stereo unspecified)
inactive: [2] 100 % of control | [3] 100 % of control | [6] 94 % of control

Cc1nc2ccccc2c(=O)n1N1C2CCCC21 (stereo unspecified)
inactive: dose: 50.0 mg/kg/injection, schedule: Q04DX002 (ip), vehicle: Klucel (hydroxypropylcellulose) (HPC) 103 % of control | dose: 100.0 mg/kg/injection, schedule: Q04DX002 (ip), vehicle: Klucel (hydroxypropylcellulose) (HPC) 98 % of control | dose: 200.0 mg/kg/injection, schedule: Q04DX002 (ip), vehicle: Klucel (hydroxypropylcellulose) (HPC) 100 % of control

CN(C)C1C(=O)C(C(=O)NP(=O)(NCCCO)N(CCCl)CCCl)=C(O)C2(O)C(=O)C3=C(O)c4c(O)cccc4C(C)(O)C3CC12 (stereo unspecified)
inactive: dose: 0.25 mg/kg/injection, schedule: Q01DX005 (ip), vehicle: saline 92 % of control | dose: 0.5 mg/kg/injection, schedule: Q01DX005 (ip), vehicle: saline 102 % of control | dose: 1.0 mg/kg/injection, schedule: Q01DX005 (ip), vehicle: saline 104 % of control | dose: 2.0 mg/kg/injection, schedule: Q01DX005 (ip), vehicle: saline 100 % of control | dose: 3.13 mg/kg/injection, schedule: Q04DX003 (ip), vehicle: saline 98 % of control | dose: 4.0 mg/kg/injection, schedule: Q01DX005 (ip), vehicle: saline 101 % of control | dose: 6.25 mg/kg/injection, schedule: Q04DX003 (ip), vehicle: saline 102 % of control | dose: 8.0 mg/kg/injection, schedule: Q01DX005 (ip), vehicle: saline 101 % of control | dose: 12.5 mg/kg/injection, schedule: Q04DX003 (ip), vehicle: saline 103 % of control | dose: 25.0 mg/kg/injection, schedule: Q04DX003 (ip), vehicle: saline 107 % of control | dose: 50.0 mg/kg/injection, schedule: Q04DX003 (ip), vehicle: saline 108 % of control

CC1(C)SC(C(NC(=O)Cc2ccccc2)C(=O)O)NC1C(=O)O (stereo unspecified)
inactive: [4] 90 % of control | [5] 100 % of control | [14] 104 % of control

CCCCC1/C(=C/C(=O)c2ccccc2)Nc2ccccc2N1C(=O)c1ccccc1 (stereo unspecified)
inactive: [7] 97 % of control | [8] 89 % of control | dose: 240.0 mg/kg/injection, schedule: Q01DX005 (ip), vehicle: Klucel (hydroxypropylcellulose) (HPC) 90 % of control

Cc1ccc(NC(=O)COc2ccc(Cl)cc2Cl)c(C)c1
inactive: [4] 104 % of control | [5] 95 % of control | [14] 90 % of control

CCOC(=O)C1=C(O)C(C)(c2ccc(O)cc2O)N=C1c1ccccc1 (stereo unspecified)
inactive: [11] 95 % of control | [12] 96 % of control | [13] 89 % of control

CCC(c1ccc(O)cc1)c1cc2c(cc1OC)OCO2 (stereo unspecified)
inactive: dose: 50.0 mg/kg/injection, schedule: Q01DX005 (ip), vehicle: distilled water + Tween-80 101 % of control | dose: 100.0 mg/kg/injection, schedule: Q01DX005 (ip), vehicle: distilled water + Tween-80 96 % of control | dose: 200.0 mg/kg/injection, schedule: Q01DX005 (ip), vehicle: distilled water + Tween-80 96 % of control

COc1ccc2ccc3oc([N+](=O)[O-])cc3c2c1
inactive: [11] 108 % of control | [12] 119 % of control | dose: 400.0 mg/kg/injection, schedule: Q01DX005 (ip), vehicle: Klucel (hydroxypropylcellulose) (HPC) 92 % of control

C[C@H](C(O)CC(=O)C(C)(C)O)[C@H]1CC[C@@]2(C)[C@@H]3CC[C@H]4C(C)(C)[C@@H](OC5OC(COC6OC(CO)C(O)C(O)C6O)C(O)C(O)C5O)CC[C@]4(C)C3=CC[C@]12C (stereo partly specified)
inactive: dose: 9.25 mg/kg/injection, schedule: Q01DX005 (ip), vehicle: saline 100 % of control | dose: 18.5 mg/kg/injection, schedule: Q01DX005 (ip), vehicle: saline 100 % of control | dose: 37.0 mg/kg/injection, schedule: Q01DX005 (ip), vehicle: saline 112 % of control | dose: 74.0 mg/kg/injection, schedule: Q01DX005 (ip), vehicle: saline 105 % of control
